*: point of attachment. NHNH2 = NN*
How the values were obtained:
Format in all cases: cell-based
ARPE19 cells = assay: EGFP mRNA delivery, robotic library screening, ARPE19
Experimental: (§1) Cells were seeded in a 96 well plate the day before the experiment at a concentration of 50,000 cell/mL (100 μL/w) in DMEM+10% FBS+1% Gln-Abt. For robotic library screening, the delivery of EGFP-mRNA (from TriLink, fully substituted with 5-methoxyuridine, capped and polyadenylated; TriLink, CleanCap® EGFP mRNA (5moU), ref. L-7201) in six different cell lines was performed. Amphiphilic molecule stock solutions were prepared in DMSO as described above and diluted in DMEM to afford a range of concentrations. The solutions of EGFP-mRNA/amphiphilic molecule complexes were freshly prepared prior to the transfection experiments. 35 μL of the corresponding amphiphile were added to 10 μL of a solution of EGFP-mRNA at 10 ng/μL in DMEM. The mixture was shaken for 30 min at room temperature before the addition to the cells. The cell medium was aspirated, and cells were washed with PBS twice. Cells were covered with 39 μL of DMEM and 11 μL of the complex's solution were added to the cells and incubated for 4 h (final concentration of peptide=2.5, 5 and 10 μM; final concentration of EGFP-mRNA=25 ng/well). After the incubation, the medium was replaced by 100 μL of fresh DMEM supplemented with 10% FBS. The total EGFP fluorescence was quantified after 72 h in a well plate reader. Amphiphile transfection efficiency was compared and normalized to Lipofectamine® MessengerMax efficiency (value of 1 in Tables 1-5 and 7; double underlined numbers). All experiments were done in triplicate.
(§2) Tables 1-7: RLuc (pDNA) or EGFP (mRNA) expression levels were normalized to Lipofectamine reagents (value=1) and expressed as fold-times signal increase. In the case of siRNA, the siRNA treated cells fluorescence was compared with siMOCK control fluorescence, while Cas9-RNP mediated knockout was measured against the fluorescence of untreated cells. In both siRNA and Cas9-RNP, values are expressed as % fluorescence reduction. Amphiphile concentration was 5 μM in all cases. All experiments were performed in triplicate.
(§3) Tables 14-19 show the mean (triplicates) fluorescence intensity measured after the transfection of EGFP mRNA by different amphiphiles at different concentrations in a variety of cell lines. Background fluorescence values, accounted by untreated control cells, were subtracted for processing.

A549 cells [1] = assay: EGFP mRNA delivery, robotic library screening, A549
Experimental: as §1, §2, §3

HepG2 cells [2] = assay: EGFP mRNA delivery, robotic library screening, HepG2; conditions: HepG2 cells
Experimental: as §1, with “Cells were covered with 39 μL of DMEM and 11 μL of the complex's solution were added to the cells and incubated for 4 h (final concentration of peptide=2.5, 5 and 10 μM; final concentration of EGFP-mRNA=25 ng/well).” left out
as §2, §3

HepG2 cells [3] = assay: RLuc pDNA delivery, robotic library screening, HepG2
Experimental: (§4) Cells were seeded in a 96 well plate the day before the experiment at a concentration of 60,000 cell/mL (100 μL/w) in DMEM+10% FBS+1% Gln-Abt. For robotic library screening, the delivery of pDNA encoding for the expression of Renilla luciferase gene (RLuc, pRL-CMV (Promega, #E2261)) in six different cell lines was performed. Amphihilic molecule stock solutions in DMSO were diluted with DMEM and freshly mixed with pDNA stock solutions in DMEM prior to transfection experiments, to afford several complexes at different amphiphile concentration (2-10 μM) while maintaining a constant final pDNA concentration of 2 ng/μL. The mixture was shaken for 30 min at room temperature before the addition to the cells. The cell medium was aspirated, and cells were washed twice with PBS. Finally, 50 μL of the complex's solution were added to the cells and incubated for 4 h. After the incubation, the medium was replaced by 100 μL of fresh DMEM supplemented with 10% FBS. 72 hours after transfection the DMEM was removed, cells were washed once with HBSS and 90 μL of HBSS were added to each well. Cells were incubated at 37° C. for 30 minutes. Then basal luminescence levels were read in a plate reader. Immediately, 10 μL of coelenterazine h in HBSS were added to each well (5 μM final concentration) and cells were incubated at 37° C. for 10 minutes. Finally, the total luminescence measurement of the plates was performed. Amphiphile transfection efficiency was compared and normalized to Lipofectamine® 2000 efficiency (value of 1 in Tables 1-5 and 7; bold numbers). All experiments were done in triplicate.
as §2
(§5) Tables 8-13 show the mean (triplicates) luminescent intensity (RLU) measured after the transfection of RLuc pDNA by different amphiphiles at different concentrations in a variety of cell lines. Background luminescence values, accounted by untransfected control cells, were subtracted for processing.

A549 cells [4] = assay: RLuc pDNA delivery, robotic library screening, A549
Experimental: as §4, §2, §5

Substance: Ac-RRHK*RLK*RRLK*RL-NH2 (Ac-RRHK(NHNH2)RLK(NHNH2)RRLK(NHNH2)RL-NH2; not fully specified; printed as Ac-RRHK*RLK*RRLK*RL-NH2; also: K*4,K*7,K*11: native or modified lysine (ε-amide to a linker)) [13(Leu-His)]
- mean fluorescence intensity (EGFP mRNA) (ARPE19 cells; Petroselinyl, 5 μM): 318
- mean fluorescence intensity (EGFP mRNA) (ARPE19 cells; Petroselinyl, 10 μM): 419
- mean fluorescence intensity (EGFP mRNA) (A549 cells [1]; Dodecanal, 2.5 μM): 2133
- mean fluorescence intensity (EGFP mRNA) (A549 cells [1]; Dodecanal, 5 μM): 803
- mean fluorescence intensity (EGFP mRNA) (A549 cells [1]; Dodecanal, 10 μM): 170
- mean fluorescence intensity (EGFP mRNA) (A549 cells [1]; Myristoleyl, 2.5 μM): 882
- mean fluorescence intensity (EGFP mRNA) (A549 cells [1]; Myristoleyl, 5 μM): 370
- mean fluorescence intensity (EGFP mRNA) (A549 cells [1]; Myristoleyl, 10 μM): 569
- mean fluorescence intensity (EGFP mRNA) (A549 cells [1]; Palmitoleyl, 2.5 μM): 1406
- mean fluorescence intensity (EGFP mRNA) (A549 cells [1]; Palmitoleyl, 5 μM): 916
- mean fluorescence intensity (EGFP mRNA) (A549 cells [1]; Palmitoleyl, 10 μM): 617
- mean fluorescence intensity (EGFP mRNA) (A549 cells [1]; Petroselinyl, 2.5 μM): 1141
- mean fluorescence intensity (EGFP mRNA) (A549 cells [1]; Petroselinyl, 5 μM): 437
- mean fluorescence intensity (EGFP mRNA) (A549 cells [1]; Petroselinyl, 10 μM): 245
- mean fluorescence intensity after transfection of EGFP mRNA (HepG2 cells [2]; Myristoleyl, 5 μM): 2950
- mean fluorescence intensity after transfection of EGFP mRNA (HepG2 cells [2]; Myristoleyl, 15 μM): 308
- mean fluorescence intensity after transfection of EGFP mRNA (HepG2 cells [2]; Palmitoleyl, 5 μM): 1636
- mean fluorescence intensity after transfection of EGFP mRNA (HepG2 cells [2]; Palmitoleyl, 10 μM): 574
- mean fluorescence intensity after transfection of EGFP mRNA (HepG2 cells [2]; Palmitoleyl, 15 μM): −350
- mean luminescent intensity (RLuc pDNA) (HepG2 cells [3]; Dodecanal, 10 μM): 12080 RLU
- mean luminescent intensity (RLuc pDNA) (HepG2 cells [3]; Dodecanal, 15 μM): 73505 RLU
- mean luminescent intensity (RLuc pDNA) (HepG2 cells [3]; Myristoleyl, 10 μM): 61828 RLU
- mean luminescent intensity (RLuc pDNA) (HepG2 cells [3]; Myristoleyl, 15 μM): 35356 RLU
- mean luminescent intensity (RLuc pDNA) (HepG2 cells [3]; Oleyl, 5 μM): 116466 RLU
- mean luminescent intensity (RLuc pDNA) (HepG2 cells [3]; Palmitoleyl, 10 μM): 71476 RLU
- mean luminescent intensity (RLuc pDNA) (A549 cells [4]; Oleyl, 5 μM): 17058 RLU
- mean luminescent intensity (RLuc pDNA) (A549 cells [4]; Petroselinyl, 15 μM): 2865 RLU

Substance: Ac-RRLK*RLLRRLK*RLK*RRL-NH2 (Ac-RRLK(NHNH2)RLLRRLK(NHNH2)RLK(NHNH2)RRL-NH2; not fully specified; printed as Ac-RRLK*RLLRRLK*RLK*RRL-NH2; also: K*4,K*11,K*14: native or modified lysine (ε-amide to a linker)) [Peptide 17.3]
- mean fluorescence intensity (EGFP mRNA) (ARPE19 cells; Dodecanal, 5 μM): 466
- mean fluorescence intensity (EGFP mRNA) (ARPE19 cells; Myristoleyl, 5 μM): 323
- mean fluorescence intensity (EGFP mRNA) (ARPE19 cells; Myristoleyl, 10 μM): 393
- mean fluorescence intensity (EGFP mRNA) (ARPE19 cells; Petroselinyl, 2.5 μM): 479
- mean fluorescence intensity (EGFP mRNA) (ARPE19 cells; Petroselinyl, 5 μM): 351
- mean fluorescence intensity (EGFP mRNA) (ARPE19 cells; Petroselinyl, 10 μM): 293
- mean fluorescence intensity (EGFP mRNA) (A549 cells [1]; Myristoleyl, 2.5 μM): 563
- mean fluorescence intensity (EGFP mRNA) (A549 cells [1]; Myristoleyl, 5 μM): 309
- mean fluorescence intensity (EGFP mRNA) (A549 cells [1]; Petroselinyl, 2.5 μM): 791
- mean fluorescence intensity (EGFP mRNA) (A549 cells [1]; Petroselinyl, 5 μM): 440
- mean fluorescence intensity (EGFP mRNA) (A549 cells [1]; Petroselinyl, 10 μM): 274
- mean fluorescence intensity after transfection of EGFP mRNA (HepG2 cells [2]; Dodecanal, 5 μM): 32417
- mean fluorescence intensity after transfection of EGFP mRNA (HepG2 cells [2]; Dodecanal, 10 μM): 2293
- mean fluorescence intensity after transfection of EGFP mRNA (HepG2 cells [2]; Myristoleyl, 5 μM): 39022
- mean fluorescence intensity after transfection of EGFP mRNA (HepG2 cells [2]; Myristoleyl, 10 μM): 251
- mean fluorescence intensity after transfection of EGFP mRNA (HepG2 cells [2]; Myristoleyl, 15 μM): −417
- mean fluorescence intensity after transfection of EGFP mRNA (HepG2 cells [2]; Oleyl, 5 μM): 6483
- mean fluorescence intensity after transfection of EGFP mRNA (HepG2 cells [2]; Palmitoleyl, 5 μM): 63064
- mean fluorescence intensity after transfection of EGFP mRNA (HepG2 cells [2]; Palmitoleyl, 10 μM): 7710
- mean fluorescence intensity after transfection of EGFP mRNA (HepG2 cells [2]; Palmitoleyl, 15 μM): 356
- mean fluorescence intensity after transfection of EGFP mRNA (HepG2 cells [2]; Petroselinyl, 5 μM): 56287
- mean fluorescence intensity after transfection of EGFP mRNA (HepG2 cells [2]; Petroselinyl, 10 μM): 5790
- mean fluorescence intensity after transfection of EGFP mRNA (HepG2 cells [2]; Petroselinyl, 15 μM): 157
- mean luminescent intensity (RLuc pDNA) (HepG2 cells [3]; Dodecanal, 5 μM): 32417 RLU
- mean luminescent intensity (RLuc pDNA) (HepG2 cells [3]; Dodecanal, 10 μM): 2293 RLU
- mean luminescent intensity (RLuc pDNA) (HepG2 cells [3]; Dodecanal, 15 μM): −1196 RLU
- mean luminescent intensity (RLuc pDNA) (HepG2 cells [3]; Myristoleyl, 5 μM): 39022 RLU
- mean luminescent intensity (RLuc pDNA) (HepG2 cells [3]; Myristoleyl, 15 μM): −417 RLU
- mean luminescent intensity (RLuc pDNA) (HepG2 cells [3]; Oleyl, 5 μM): 6483 RLU
- mean luminescent intensity (RLuc pDNA) (HepG2 cells [3]; Oleyl, 15 μM): −1375 RLU
- mean luminescent intensity (RLuc pDNA) (HepG2 cells [3]; Palmitoleyl, 5 μM): 63064 RLU
- mean luminescent intensity (RLuc pDNA) (HepG2 cells [3]; Palmitoleyl, 15 μM): 356 RLU
- mean luminescent intensity (RLuc pDNA) (A549 cells [4]; Dodecanal, 10 μM): 1381 RLU
- mean luminescent intensity (RLuc pDNA) (A549 cells [4]; Dodecanal, 15 μM): 1660 RLU
- mean luminescent intensity (RLuc pDNA) (A549 cells [4]; Myristoleyl, 10 μM): 1545 RLU
- mean luminescent intensity (RLuc pDNA) (A549 cells [4]; Myristoleyl, 15 μM): 2581 RLU
- mean luminescent intensity (RLuc pDNA) (A549 cells [4]; Oleyl, 10 μM): 1201 RLU
- mean luminescent intensity (RLuc pDNA) (A549 cells [4]; Oleyl, 15 μM): 1552 RLU
- mean luminescent intensity (RLuc pDNA) (A549 cells [4]; Palmitoleyl, 5 μM): 2518 RLU
- mean luminescent intensity (RLuc pDNA) (A549 cells [4]; Palmitoleyl, 15 μM): 2585 RLU
- mean luminescent intensity (RLuc pDNA) (A549 cells [4]; Petroselinyl, 15 μM): 2614 RLU

— patent US20250304623A1, “PEPTIDES FOR INTRACELLULAR DELIVERY” (UNIVERSIDADE DE SANTIAGO DE COMPOSTELA, priority 2022, published 2025)
